Assay results: ChEMBL document CHEMBL1201862, “PubChem BioAssay data set” (2004)
Activity calls are given as the source filed them.

How the values were obtained:
[1] = viability of uninfected HEp-2 cells – cell-based, HTS, cytotoxicity control for RSV inhibitor project, dose response (AID 2410); format: functional; settings: human respiratory syncytial virus
[2] = biological target: T1, Heat shock factor protein 1 (Mus musculus, UniProt P38532); assay: decrease of HSF1-responsive luciferase luminescence – cell-based, NIH3T3, dose retest, confirmation (AID 2382); format: functional;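 further: NIH3T3 fibroblasts with HSF1-driven luciferase reporter stressed by proteasome inhibitor MG132; luminescence from HSF1-driven luciferase expression after 8 hours of MG132 stress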
T1 sequence (P38532 whole entry): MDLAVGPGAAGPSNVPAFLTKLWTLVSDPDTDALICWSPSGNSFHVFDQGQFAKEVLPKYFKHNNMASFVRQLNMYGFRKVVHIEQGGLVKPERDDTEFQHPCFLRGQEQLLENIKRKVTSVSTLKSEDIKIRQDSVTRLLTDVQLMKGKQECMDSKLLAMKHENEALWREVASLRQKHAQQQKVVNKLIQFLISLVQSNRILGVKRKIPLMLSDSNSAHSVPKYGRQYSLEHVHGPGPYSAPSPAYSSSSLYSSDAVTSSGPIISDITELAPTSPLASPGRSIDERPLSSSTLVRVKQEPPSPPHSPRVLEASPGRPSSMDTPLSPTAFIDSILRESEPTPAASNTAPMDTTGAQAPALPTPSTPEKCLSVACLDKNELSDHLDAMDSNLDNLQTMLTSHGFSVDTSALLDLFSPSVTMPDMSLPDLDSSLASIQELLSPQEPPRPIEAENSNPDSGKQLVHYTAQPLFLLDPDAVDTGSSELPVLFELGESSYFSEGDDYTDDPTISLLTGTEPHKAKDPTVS

[3] = biological target: COUP transcription factor 2 (Homo sapiens, UniProt P24468); assay: Luminescence-based cell-based high throughput dose response assay to identify inhibitors of COUP-TFII (NR2F2).; format: functional;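 further: HEK293 cells transiently cotransfected with COUP-TFII expression vector and reporter; luciferase reporter luminescence driven by COUP-TFII from the pX2-168 reporter plasmid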
Chain of COUP transcription factor 2 (P24468 whole entry): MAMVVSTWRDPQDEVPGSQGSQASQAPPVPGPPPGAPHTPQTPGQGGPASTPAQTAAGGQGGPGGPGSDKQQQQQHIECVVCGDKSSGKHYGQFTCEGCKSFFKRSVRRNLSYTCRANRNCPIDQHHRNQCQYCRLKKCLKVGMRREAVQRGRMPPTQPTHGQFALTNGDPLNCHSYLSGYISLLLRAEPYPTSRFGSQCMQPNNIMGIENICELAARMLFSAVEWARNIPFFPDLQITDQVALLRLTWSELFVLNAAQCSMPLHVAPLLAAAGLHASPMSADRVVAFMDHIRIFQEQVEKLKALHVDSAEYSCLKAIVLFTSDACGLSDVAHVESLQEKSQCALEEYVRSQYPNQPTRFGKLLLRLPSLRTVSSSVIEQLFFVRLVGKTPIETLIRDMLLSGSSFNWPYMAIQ

[4] = biological target: T2, Acyl-homoserine lactone acylase PvdQ (Pseudomonas aeruginosa (strain LESB58), UniProt Q9I194); assay: PvdQ acylase enzyme activity blockers – biochemical, fluorescence, plate reader and imaging, cherry-picks, dose response (AID 493231)
T2 sequence (Q9I194 whole entry): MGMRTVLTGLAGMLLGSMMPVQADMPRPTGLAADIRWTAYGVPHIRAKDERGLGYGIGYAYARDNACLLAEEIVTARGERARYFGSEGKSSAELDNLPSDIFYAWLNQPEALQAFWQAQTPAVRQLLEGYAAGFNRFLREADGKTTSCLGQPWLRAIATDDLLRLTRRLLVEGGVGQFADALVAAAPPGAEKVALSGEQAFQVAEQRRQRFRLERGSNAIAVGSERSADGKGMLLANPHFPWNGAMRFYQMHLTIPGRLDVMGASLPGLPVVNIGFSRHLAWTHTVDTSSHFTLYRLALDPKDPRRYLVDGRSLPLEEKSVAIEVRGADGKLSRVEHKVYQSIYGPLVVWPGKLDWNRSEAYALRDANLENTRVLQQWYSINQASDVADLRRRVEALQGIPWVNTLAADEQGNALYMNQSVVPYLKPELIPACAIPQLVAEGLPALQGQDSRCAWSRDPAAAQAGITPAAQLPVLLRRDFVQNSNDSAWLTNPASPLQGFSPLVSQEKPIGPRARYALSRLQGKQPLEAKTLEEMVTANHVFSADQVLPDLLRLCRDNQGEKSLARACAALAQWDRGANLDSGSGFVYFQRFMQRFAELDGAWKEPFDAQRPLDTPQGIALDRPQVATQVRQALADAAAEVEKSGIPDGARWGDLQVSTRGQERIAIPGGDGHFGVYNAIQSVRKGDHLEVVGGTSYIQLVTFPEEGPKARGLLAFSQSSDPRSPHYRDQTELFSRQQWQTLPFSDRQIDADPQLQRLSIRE

[5] = HEK-293T viability loss after treatment – luminescence, T-cell screen hits, cytotoxicity control for TCR NF-kB inhibitor project, dose response (AID 489026); format: functional, cell-based;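 further: cells exposed to compound about 14 hours before the viability readout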
[6] = A549 cell cytotoxicity, dose response, cytotoxicity control, plate reader, cherry-pick, antagonist series (AID 743412); format: functional, cell-based
[7] = toxicity toward HepG2 liver cells – cell-based, plate reader, cherry-pick, antagonist series, cytotoxicity control, dose response (AID 743416); format: functional
[8] = blockers of bursicon-stimulated LGR2 cAMP reporter – cell-based, HEK293, CRE-luciferase reporter, cherry pick, set 2, dose response (AID 743343); format: functional;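 further: transfected cells were stimulated with diluted bursicon conditioned medium after compound addition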
[9] = blockade of melanocortin 4 receptor signaling – cell-based, plate reader, cherry pick, counter-screen for LGR2 antagonist project, dose response (AID 743444); format: functional;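 further: transfected HEK 293 cells stimulated with alpha-MSH peptide; potency of inhibitors of the alpha-MSH evoked signal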
[10] = viability loss in HEK293 cells – cell-based, plate reader, cherry-picked samples, cytotoxicity control, dose response (AID 743446); format: functional
[11] = biological target: Paired box protein Pax-8 (Homo sapiens, UniProt Q06710); assay: PAX8 transcriptional activity inhibition in RMG-I – RMG-I cells, luciferase, cherry-pick, dose response (AID 687027); format: functional, cell-based;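 further: luciferase reporter driven by Pax8 target thyroperoxidase promoter measured by SteadyGlo luminescence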
Chain of Paired box protein Pax-8 (Q06710 whole entry): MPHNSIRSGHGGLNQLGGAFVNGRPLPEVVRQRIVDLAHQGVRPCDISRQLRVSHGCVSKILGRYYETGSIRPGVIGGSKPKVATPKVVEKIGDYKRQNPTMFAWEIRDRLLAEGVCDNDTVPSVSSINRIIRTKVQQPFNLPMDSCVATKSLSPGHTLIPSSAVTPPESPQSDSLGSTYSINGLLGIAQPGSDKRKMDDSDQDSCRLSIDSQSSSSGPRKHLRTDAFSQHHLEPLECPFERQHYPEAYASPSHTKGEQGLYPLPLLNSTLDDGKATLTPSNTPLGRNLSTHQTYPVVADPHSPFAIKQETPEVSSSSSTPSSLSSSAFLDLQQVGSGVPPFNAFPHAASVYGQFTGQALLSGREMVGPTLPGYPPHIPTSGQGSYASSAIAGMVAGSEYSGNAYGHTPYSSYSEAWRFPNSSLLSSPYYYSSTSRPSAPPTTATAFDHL

[12] = toxicity toward immortalized ovarian surface epithelium – cell-based, plate reader, dry powder samples, cytotoxicity control for PAX8 inhibitor project, dose response (AID 743045); format: functional
[13] = OVCAR-3 cell viability loss – plate reader, dry powder samples, PAX8 inhibitor project, dose response (AID 743044); format: functional, cell-based
[14] = OVCAR4 cell viability loss – plate reader, dry powder, SA11, cytotoxicity control for PAX8 inhibitor project, dose response (AID 743150); format: functional, cell-based; settings: OVCAR-4
[15] = COV434 cell viability loss – plate reader, dry powder, SA7, cytotoxicity control for PAX8 inhibitor project, dose response (AID 743145); format: functional, cell-based
[16] = OV-90 cell viability loss – plate reader, dry powder, SA8, PAX8 inhibitor project, dose response (AID 743149); format: functional, cell-based
[17] = PAX8-dependent cell viability loss – plate reader, dry powder, dose response (AID 743049); format: functional, cell-based
[18] = biological target: T3, Methionyl-tRNA synthetase, putative (Trypanosoma brucei brucei, UniProt Q38C91); format: functional, Trypanosoma brucei brucei strain 927/4 GUTat10.1
T3 sequence (Q38C91 whole entry): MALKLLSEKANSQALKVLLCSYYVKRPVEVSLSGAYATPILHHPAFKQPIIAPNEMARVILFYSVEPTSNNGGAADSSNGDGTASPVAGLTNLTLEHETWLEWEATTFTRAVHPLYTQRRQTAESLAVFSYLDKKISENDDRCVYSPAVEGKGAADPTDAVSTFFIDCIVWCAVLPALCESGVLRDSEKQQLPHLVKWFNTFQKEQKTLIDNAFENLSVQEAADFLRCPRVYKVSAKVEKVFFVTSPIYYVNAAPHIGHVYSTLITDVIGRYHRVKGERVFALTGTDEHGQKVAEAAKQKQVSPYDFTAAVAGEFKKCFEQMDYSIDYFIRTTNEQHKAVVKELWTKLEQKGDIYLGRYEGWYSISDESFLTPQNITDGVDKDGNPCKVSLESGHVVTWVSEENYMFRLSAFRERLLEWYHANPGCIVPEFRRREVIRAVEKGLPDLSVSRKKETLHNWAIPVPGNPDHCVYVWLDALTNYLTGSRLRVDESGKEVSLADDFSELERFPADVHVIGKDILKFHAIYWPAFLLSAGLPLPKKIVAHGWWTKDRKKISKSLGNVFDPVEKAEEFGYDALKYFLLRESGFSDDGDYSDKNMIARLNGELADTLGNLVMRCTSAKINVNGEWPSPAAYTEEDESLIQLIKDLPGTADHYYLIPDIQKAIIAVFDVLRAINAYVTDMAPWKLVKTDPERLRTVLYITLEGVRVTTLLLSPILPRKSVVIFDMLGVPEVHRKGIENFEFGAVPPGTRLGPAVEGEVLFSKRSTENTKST

[19] = Counterscreen for inhibitors of Trypanosoma brucei methionyl tRNA synthetase (MetRS): Luminescence-based cell-based high throughput dose response assay to identify compounds that are cytotoxic to Jurkat human T lymphocyte cells.; format: functional
[20] = biological target: T3, Methionyl-tRNA synthetase, putative; format: functional, Trypanosoma brucei brucei strain 927/4 GUTat10.1; remark: listed apart in the source
[21] = biological target: SWI/SNF-related matrix-associated actin-dependent regulator of chromatin subfamily A member 2 (Homo sapiens, UniProt P51531); assay: Luminescence-based cell-based high throughput dose response assay to identify activators of the function of SWI/SNF related, matrix associated, actin dependent regulator of chromatin, subfamily a, member 2 (SMARCA2, BRM).; format: functional
Chain of SWI/SNF-related matrix-associated actin-dependent regulator of chromatin subfamily A member 2 (P51531 whole entry): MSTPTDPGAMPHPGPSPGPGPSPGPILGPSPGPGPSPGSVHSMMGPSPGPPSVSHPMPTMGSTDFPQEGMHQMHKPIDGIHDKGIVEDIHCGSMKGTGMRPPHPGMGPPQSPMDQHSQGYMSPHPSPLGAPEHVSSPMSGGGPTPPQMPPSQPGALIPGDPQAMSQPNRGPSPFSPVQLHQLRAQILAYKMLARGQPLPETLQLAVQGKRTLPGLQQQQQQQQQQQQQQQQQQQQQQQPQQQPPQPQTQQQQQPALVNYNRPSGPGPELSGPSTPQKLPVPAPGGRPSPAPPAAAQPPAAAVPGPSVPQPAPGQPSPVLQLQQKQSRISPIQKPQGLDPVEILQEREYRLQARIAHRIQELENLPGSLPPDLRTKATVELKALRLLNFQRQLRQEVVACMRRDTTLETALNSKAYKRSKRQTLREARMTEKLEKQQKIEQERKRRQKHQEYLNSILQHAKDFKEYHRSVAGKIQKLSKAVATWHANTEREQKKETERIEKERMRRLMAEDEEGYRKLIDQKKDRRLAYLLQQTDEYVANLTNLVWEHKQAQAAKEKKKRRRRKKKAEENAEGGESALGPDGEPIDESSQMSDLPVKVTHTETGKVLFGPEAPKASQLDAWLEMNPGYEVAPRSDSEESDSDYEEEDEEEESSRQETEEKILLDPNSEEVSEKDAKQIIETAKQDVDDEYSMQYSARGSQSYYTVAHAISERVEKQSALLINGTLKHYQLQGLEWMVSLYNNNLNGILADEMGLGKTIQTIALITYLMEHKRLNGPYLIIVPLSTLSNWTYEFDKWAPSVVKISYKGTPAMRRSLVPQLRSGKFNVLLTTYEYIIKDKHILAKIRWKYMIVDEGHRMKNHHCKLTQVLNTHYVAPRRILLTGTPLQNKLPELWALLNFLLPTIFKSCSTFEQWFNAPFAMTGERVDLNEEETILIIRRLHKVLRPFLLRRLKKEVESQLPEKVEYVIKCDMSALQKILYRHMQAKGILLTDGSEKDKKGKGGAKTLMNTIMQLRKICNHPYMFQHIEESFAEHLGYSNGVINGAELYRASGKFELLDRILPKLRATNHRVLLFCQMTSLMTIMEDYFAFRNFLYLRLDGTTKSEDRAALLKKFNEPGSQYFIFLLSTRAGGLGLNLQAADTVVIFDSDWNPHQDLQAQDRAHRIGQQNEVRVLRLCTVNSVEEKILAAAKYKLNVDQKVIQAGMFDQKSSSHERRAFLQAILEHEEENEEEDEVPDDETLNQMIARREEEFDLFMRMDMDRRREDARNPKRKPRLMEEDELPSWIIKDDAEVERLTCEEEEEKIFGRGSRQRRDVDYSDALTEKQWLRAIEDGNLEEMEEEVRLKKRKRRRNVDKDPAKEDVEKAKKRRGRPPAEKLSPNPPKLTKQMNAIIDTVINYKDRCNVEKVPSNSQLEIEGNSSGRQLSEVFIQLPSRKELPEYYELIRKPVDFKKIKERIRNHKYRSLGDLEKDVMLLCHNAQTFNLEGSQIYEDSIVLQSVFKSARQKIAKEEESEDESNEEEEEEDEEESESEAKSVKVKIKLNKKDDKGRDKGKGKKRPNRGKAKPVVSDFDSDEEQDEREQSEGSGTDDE

[22] = Counterscreen for activators of the function of SWI/SNF related, matrix associated, actin dependent regulator of chromatin, subfamily a, member 2 (SMARCA2, BRM): Luminescence-based cell-based high throughput dose response assay to identify non-selective compounds using the VP16 reporter assay.; format: functional
[23] = tested on: HEK293; assay: viability loss in HEK293T cells – cell-based, ATP luminescence, cherry-pick samples, cytotoxicity control, dose response (AID 687005); format: functional; settings: Homo sapiens;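 further: cells exposed to compound for 48 hours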
[24] = HEK293 Cytotoxicity Assay Measured in Cell-Based System Using Plate Reader - 7071-01_Inhibitor_Dose_CherryPick_Activity_Set2.; format: functional
[25] = biological target: FAD-linked sulfhydryl oxidase ALR (Homo sapiens, UniProt P55789); assay: ALR-catalysed DTT oxidation blockers – biochemical, H2O2 detection, luminescence, cherry-pick, dose response (AID 493248)
Chain of FAD-linked sulfhydryl oxidase ALR (P55789 whole entry): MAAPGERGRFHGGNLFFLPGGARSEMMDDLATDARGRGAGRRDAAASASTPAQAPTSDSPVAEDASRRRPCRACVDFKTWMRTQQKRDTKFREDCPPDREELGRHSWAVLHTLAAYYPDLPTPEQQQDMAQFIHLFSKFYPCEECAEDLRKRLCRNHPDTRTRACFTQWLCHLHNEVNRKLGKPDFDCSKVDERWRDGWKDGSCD

[26] = tested on: HeLa; assay: ATP-based viability loss in HeLa cells – cell-based, CellTiter-Glo luminescence, cherry-pick samples, cytotoxicity control for MITF activator project, dose response (AID 540259); format: functional; settings: Homo sapiens
[27] = viability loss in HeLa cells – cytotoxicity control for MgcRacGAP inhibitor project, dose response (AID 624300); format: functional
[28] = biological target: T4, Rac GTPase-activating protein 1 (Homo sapiens, UniProt Q9H0H5); assay: blockers of MgcRacGAP-driven Rac1 GTP hydrolysis – biochemical, ADP Hunter fluorescence, primary and confirmatory, confirmation (AID 624330); format: functional
T4 sequence (Q9H0H5 whole entry): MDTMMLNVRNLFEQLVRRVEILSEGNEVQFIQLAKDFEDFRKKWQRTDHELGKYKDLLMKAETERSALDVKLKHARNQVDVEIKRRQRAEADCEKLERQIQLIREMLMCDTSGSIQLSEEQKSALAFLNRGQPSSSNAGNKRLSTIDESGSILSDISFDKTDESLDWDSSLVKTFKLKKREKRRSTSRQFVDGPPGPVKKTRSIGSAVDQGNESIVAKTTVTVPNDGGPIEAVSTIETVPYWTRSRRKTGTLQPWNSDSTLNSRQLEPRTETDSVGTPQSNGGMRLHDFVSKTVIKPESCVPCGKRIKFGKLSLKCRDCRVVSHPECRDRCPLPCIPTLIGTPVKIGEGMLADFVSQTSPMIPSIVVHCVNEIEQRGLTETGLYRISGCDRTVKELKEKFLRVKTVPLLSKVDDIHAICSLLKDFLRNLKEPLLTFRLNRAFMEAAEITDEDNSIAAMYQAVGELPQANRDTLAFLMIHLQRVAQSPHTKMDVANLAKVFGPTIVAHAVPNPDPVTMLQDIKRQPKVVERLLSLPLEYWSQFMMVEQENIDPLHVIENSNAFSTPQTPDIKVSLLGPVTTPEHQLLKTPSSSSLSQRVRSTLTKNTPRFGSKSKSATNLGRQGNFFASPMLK

[29] = Luminescence Cell-Based Dose Confirmation HTS to Identify Activators of 5'UTR Stem-Loop Driven Alpha-Synuclein mRNA Translation in H4 Neuroglioblastoma Cells. [Related pubchem assays: 1829 (Project Summary), 1814 (Primary HTS)]; format: functional
[30] = Luminescence Cell-Based Dose Response HTS to Identify Activators of Luciferase Translation or Activity in H4 […] Cells. [Related pubchem assays: 1829 (Project Summary), 1814 (Primary HTS)]; format: functional
[31] = tested on: H4; assay: Luminescence Cell-Based Dose Response HTS to Identify Activators of 5'UTR Stem-Loop Driven Prion Protein mRNA Translation in H4 Neuroglioblastoma Cells. [Related pubchem assays: 1829 (Project Summary), 1814 (Primary HTS)]; format: functional; settings: Homo sapiens

Cc1nc2c(-c3ccccc3)cnn2c(N)c1-c1ccccc1
CC50 [1]: 17.2 µM (active)
EC50 [2]: < 0.16 µM (active)
IC50 [3]: > 9.5 µM (active)

Cc1ccc2nc(-c3ccc4c(c3)OCCO4)cn2c1
AC50 [4]: 1.27 µM (active)
IC50 [5]: > 80 µM (inactive)
AC50 [6]: 2.56 µM (active)
AC50 [7]: 2.18 µM (active)
AC50 [8]: 0.366 µM (active)
AC50 [9]: 0.527 µM (active)
AC50 [10]: 2.21 µM (active)

Cc1ccc(-c2csc(NC3OC(=O)c4ccccc43)n2)cc1 (centres undefined)
AC50 [11]: 7.58 µM (active)
AC50 [12]: 33.7 µM (active)
AC50 [13]: 28.3 µM (active)
AC50 [14]: 17.3 µM (active)
AC50 [15]: 0.0641 µM (active)
AC50 [16]: 23.1 µM (active)
AC50 [17]: 13 µM (active)

O=c1c(OC2OC(CO)C(O)C(O)C2OC2OC(CO)C(O)C(O)C2O)c(-c2ccc(O)cc2)oc2cc(O)cc(O)c12 (centres undefined)
IC50 [18]: 20.9 µM (inactive)
IC50 [19]: 83.3 µM (inactive)
IC50 [20]: 38.8 µM (inactive)

COc1ccc(/N=C/c2nc(-c3ccco3)oc2O)cc1
EC50 [21]: > 91.2 µM (inactive)
EC50 [22]: > 91.2 µM (inactive)

O=C(C[C@H]1CC[C@@H]2[C@H](COC[C@@H](O)CN2C(=O)c2cnccn2)O1)NCc1ccc(Oc2ccccc2)cc1
AC50 [23]: 35.7 µM (active)
AC50 [24]: 35.7 µM (active)

C[C@@H]1CCCCO[C@@H](CN(C)S(=O)(=O)c2ccccc2)[C@H](C)CN([C@@H](C)CO)C(=O)c2cc(NC(=O)Nc3ccc(F)cc3)ccc2O1
AC50 [23]: 21.6 µM (active)
AC50 [24]: 21.6 µM (active)

C(=N\Nc1nc2ccccc2[nH]1)/c1c[nH]c2ccccc12
AC50 [25]: 0.309 µM (active)
AC50 [26]: 40 µM (active)
IC50 [18]: 11.7 µM (inactive)
IC50 [19]: 34.8 µM (inactive)
IC50 [20]: 32.2 µM (inactive)
CC50 [27]: 81.9 µM (active)
IC50 [28]: 35.8 µM (active)

Nc1cc(C2CCCC2)nn1-c1ccccc1
EC50 [29]: 0.13 µM (active)
EC50 [30]: 7.02 µM (active)
EC50 [31]: 6.8 µM (active)
EC50 [21]: > 91.2 µM (inactive)
EC50 [22]: > 91.2 µM (inactive)

Cc1nnsc1NC(=O)OCc1ccc(C(C)(C)C)cc1
IC50 [3]: 10.4 µM (inactive)
